Data on 10 compounds can be found in ChEMBL document CHEMBL1201862, “PubChem BioAssay data set” (2004).

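Method: 48-hour compound exposure of cells in 96-well plates, five concentrations, linear interpolation of endpoints. Here, GI50 denotes the concentration required for 50% inhibition of growth.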 Calls of active or inactive are those of the source. No stated cut-off is given here; in the data, active = GI50 up to about 1.1 µM and inactive = higher.

Test systems include HL-60; HT-29; UACC-62; 786-0; M14; Hs-578T; LOX IMVI; RPMI-8226; COLO 205; OVCAR-3; PC-3; UACC-257; MCF7; NCI-H226; SR; RXF 393; CAKI-1; SNB-19; SF-295; NCI-H23.
Assay in all cases: growth of human tumour cells (NCI), 48 h

Regarding `Cc1cc(S(=O)(=O)/N=C(\NN)Nc2ccc(Cl)cc2)c(S)cc1Cl`, the GI50 was 6.27 µM (inactive) in the assay with HL-60; 16.1 µM (inactive) in the assay with HT-29; 1.5 µM (inactive) in the assay with UACC-62; 6.34 µM (inactive) with 786-0; 8.65 µM (inactive) in the assay with M14; 1.17 µM (inactive) in the assay on Hs-578T. In addition, the GI50 is 13.9 µM (inactive) in the assay on LOX IMVI; 12.3 µM (inactive) in the assay on RPMI-8226; 13.4 µM (inactive) with COLO 205; 12.4 µM (inactive) in the assay on OVCAR-3; 21.2 µM (inactive) with PC-3; 19.3 µM (inactive) with UACC-257. Besides, the GI50 is 14.8 µM (inactive) in the assay on MCF7; 16 µM (inactive) in the assay on NCI-H226; 3.76 µM (inactive) in the assay with SR; 28.6 µM (inactive) in the assay on RXF 393; 19.9 µM (inactive) with CAKI-1; 11.5 µM (inactive) in the assay on SNB-19.
In the case of `O=c1c(-c2ccc(O)cc2)coc2cc(OC3OC(CO)C(O)C(O)C3O)cc(O)c12` (stereo not given), the GI50 with HL-60 was > 10 µM (inactive); in the assay on HT-29, > 100 µM (inactive); in the assay with UACC-62, 81.3 µM (inactive); with 786-0 it was 75.5 µM (inactive); with M14 it was > 10 µM (inactive); in the assay on Hs-578T, 61.1 µM (inactive). The GI50 in the assay with SF-295 is 92.7 µM (inactive); with LOX IMVI, 79.8 µM (inactive); in the assay on RPMI-8226 it was 51.8 µM (inactive); in the assay on COLO 205, > 10 µM (inactive); with OVCAR-3, > 100 µM (inactive); with NCI-H23 it was > 10 µM (inactive). Also, the GI50 was 63.8 µM (inactive) with PC-3; > 100 µM (inactive) in the assay on UACC-257; > 10 µM (inactive) with MCF7; > 100 µM (inactive) with NCI-H226; 30.3 µM (inactive) with SR; 40 µM (inactive) in the assay with RXF 393. For the same compound, the GI50 in the assay with CAKI-1 is 60.4 µM (inactive); with SNB-19, > 100 µM (inactive).
`CCCCCCCCCCCCC(=O)NCC(=O)NC(Cc1ccccc1)C(=O)Oc1ccc([N+](=O)[O-])cc1` (stereo not given): the GI50 with HL-60 is 64.4 µM (inactive); with HT-29 it was 82.2 µM (inactive); in the assay on UACC-62 it was 60.3 µM (inactive); with 786-0, 84.3 µM (inactive); in the assay on M14, 49.1 µM (inactive); in the assay with Hs-578T it was 75.3 µM (inactive). Also, the GI50 in the assay on SF-295 is 50.4 µM (inactive); in the assay with LOX IMVI, 36.2 µM (inactive); in the assay on COLO 205, 16.7 µM (inactive); in the assay with OVCAR-3, > 100 µM (inactive); in the assay on NCI-H23, 57.7 µM (inactive); in the assay with PC-3, > 100 µM (inactive). In addition, the GI50 in the assay with UACC-257 is > 100 µM (inactive); in the assay with MCF7, 57.5 µM (inactive); in the assay with NCI-H226 it was 33.5 µM (inactive); in the assay with SR it was 33.7 µM (inactive); in the assay on RXF 393, 91.4 µM (inactive); with CAKI-1, > 100 µM (inactive). The GI50 in the assay with SNB-19 is 15.2 µM (inactive).
As to `CC(=O)C1=C(C)N(c2ccc(C)cc2)C2(O)C3=C(C(=O)c4ccccc4C3=O)C(O)=CC12Cl` (stereo not given), the GI50 in the assay on HL-60 was 4.31 µM (inactive); in the assay with HT-29 it was 22.3 µM (inactive); with UACC-62, 5.11 µM (inactive); in the assay on 786-0 it was 25.4 µM (inactive); in the assay with M14, 40.7 µM (inactive); in the assay with Hs-578T, 6.28 µM (inactive). For the same compound, the GI50 was 5.81 µM (inactive) in the assay on SF-295; 12.1 µM (inactive) in the assay on LOX IMVI; 6.5 µM (inactive) in the assay on RPMI-8226; 27.5 µM (inactive) in the assay with COLO 205; 4.76 µM (inactive) in the assay with OVCAR-3; 12.7 µM (inactive) in the assay on NCI-H23. In addition, the GI50 is 8.85 µM (inactive) in the assay on PC-3; 9.38 µM (inactive) in the assay on UACC-257; 12.1 µM (inactive) in the assay with MCF7; 43 µM (inactive) in the assay on NCI-H226; 7.06 µM (inactive) with SR; 9.73 µM (inactive) in the assay with RXF 393. Moreover, the GI50 with CAKI-1 was 10.4 µM (inactive); in the assay with SNB-19 it was 12.8 µM (inactive).
For `C(=C\C(SCc1ccccc1)SCc1ccccc1)/c1ccccc1`, the GI50 with HL-60, with HT-29, with UACC-62, in the assay on 786-0, in the assay on M14 and in the assay with Hs-578T was > 10 µM (inactive) in each case. Further, the GI50 in the assay on SF-295, in the assay on LOX IMVI, in the assay with RPMI-8226, in the assay on COLO 205, with OVCAR-3 and with NCI-H23 was > 10 µM (inactive) each time. In addition, the GI50 with PC-3, in the assay on UACC-257, with MCF7, with NCI-H226, in the assay with SR and with RXF 393 was > 10 µM (inactive) in each case. Besides, the GI50 in the assay on CAKI-1 and in the assay with SNB-19 was > 10 µM (inactive) throughout.
As for `O=C(CN1CCOCC1)NC1=Nc2ncccc2C(=O)NN1`, the GI50 in the assay with HL-60, in the assay with HT-29, with UACC-62, in the assay on 786-0, in the assay with M14 and in the assay on Hs-578T was > 10 µM (inactive) throughout. Moreover, the GI50 in the assay with SF-295, with LOX IMVI, in the assay on RPMI-8226, in the assay on OVCAR-3, with NCI-H23 and in the assay on PC-3 was > 10 µM (inactive) in each case. For the same compound, the GI50 in the assay on UACC-257, in the assay with MCF7, in the assay with NCI-H226, with SR, in the assay on RXF 393 and in the assay with SNB-19 was > 10 µM (inactive) throughout.
With `C=C(C)C(=O)OC1CC2=CC(CC3(C)OC3C3OC(=O)C(=C)C13)OC2=O` (stereo not given), the GI50 with HL-60 was 1.12 µM (active); with HT-29, 6.97 µM (inactive); with UACC-62, 9.18 µM (inactive); in the assay on 786-0, 7.24 µM (inactive); with M14, 4.41 µM (inactive); in the assay with Hs-578T it was 22.6 µM (inactive). The GI50 with SF-295 is 18.6 µM (inactive); in the assay on LOX IMVI, 4.14 µM (inactive); with COLO 205, 2.91 µM (inactive); in the assay with OVCAR-3, 10.7 µM (inactive); in the assay on NCI-H23 it was 15.4 µM (inactive); in the assay on PC-3, 14.7 µM (inactive). Besides, the GI50 in the assay on UACC-257 is 5.41 µM (inactive); in the assay with MCF7, 3.81 µM (inactive); with NCI-H226, 22.2 µM (inactive); in the assay with SR, 2.51 µM (inactive); in the assay on RXF 393, 2.9 µM (inactive); with CAKI-1, 4.58 µM (inactive). Further, in the assay with SNB-19, the GI50 was 18.5 µM (inactive).
In the case of `CCOC(=O)NN(C(=O)OCC)c1c(C)cc(C)cc1C`, the GI50 in the assay with HL-60, with HT-29, in the assay with UACC-62, with 786-0, in the assay with M14 and in the assay with Hs-578T was > 100 µM (inactive) in each case. Moreover, the GI50 in the assay on LOX IMVI was 95.3 µM (inactive); in the assay on RPMI-8226, > 100 µM (inactive); in the assay with COLO 205, > 100 µM (inactive); with OVCAR-3, > 100 µM (inactive); in the assay with NCI-H23, > 100 µM (inactive); with PC-3, > 100 µM (inactive). Further, the GI50 with UACC-257 is > 100 µM (inactive); in the assay with MCF7, > 100 µM (inactive); in the assay on NCI-H226, > 100 µM (inactive); in the assay on SR it was > 100 µM (inactive); in the assay with RXF 393, 21 µM (inactive); with CAKI-1, > 100 µM (inactive). Further, in the assay on SNB-19, the GI50 was > 100 µM (inactive).
Turning to `CC(C)(C)CNCCCNc1ccc(Cl)cc1`, the GI50 with HL-60 was < 0.01 µM (active); with HT-29 it was 20.2 µM (inactive); with UACC-62, 17.2 µM (inactive); with 786-0, 82.2 µM (inactive); in the assay on M14, 23 µM (inactive); in the assay with Hs-578T, 40.1 µM (inactive). Besides, the GI50 with SF-295 was 17.1 µM (inactive); in the assay on LOX IMVI it was 25.3 µM (inactive); in the assay with RPMI-8226, 21.2 µM (inactive); with COLO 205 it was 21 µM (inactive); in the assay with NCI-H23, > 100 µM (inactive); with PC-3, 51.3 µM (inactive). Further, the GI50 with UACC-257 was 22.8 µM (inactive); with MCF7 it was 11.9 µM (inactive); in the assay on NCI-H226, 18.5 µM (inactive); in the assay on SR, 5.41 µM (inactive); in the assay with RXF 393, 15.7 µM (inactive); in the assay on SNB-19 it was > 100 µM (inactive).
Take `CCOP(=O)(OCC)C(c1ccccc1)N(C(=O)NC(F)(F)F)c1cccc(F)c1` (stereo not given): the GI50 in the assay with HL-60 is > 100 µM (inactive); with HT-29 it was > 100 µM (inactive); in the assay on 786-0, > 100 µM (inactive); in the assay with M14 it was > 100 µM (inactive); with Hs-578T, 78.3 µM (inactive); in the assay with SF-295, > 100 µM (inactive). Besides, the GI50 in the assay on LOX IMVI is > 100 µM (inactive); in the assay with RPMI-8226, 83.2 µM (inactive); with COLO 205, > 100 µM (inactive); with OVCAR-3 it was > 100 µM (inactive); with NCI-H23 it was > 100 µM (inactive); with PC-3, 45.8 µM (inactive). Moreover, the GI50 was > 100 µM (inactive) in the assay on UACC-257; > 100 µM (inactive) with MCF7; > 100 µM (inactive) in the assay on NCI-H226; > 100 µM (inactive) in the assay with SR; 64.7 µM (inactive) in the assay on RXF 393; > 100 µM (inactive) in the assay with CAKI-1. For the same compound, the GI50 in the assay on SNB-19 was > 100 µM (inactive).
